The values that follow come from PubChem BioAssay AID256 (DTP/NCI, 2004).

The subject of this assay is CD2F1 mice, L1210 leukemia ip, survival T/C. Put plainly: NCI In Vivo Anticancer Drug Screen. Data for tumor model L1210 Leukemia (intraperitoneal) in CD2F1 (CDF1) mice. The settings on record: higher = longer survival. In outline: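 Implant tumor; dose compound or vehicle; measure endpoint in both groups; report treated divided by control.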
The mark [1] stands for this setting: endpoint: mean survival time, dose: 100.0 mg/kg/injection, schedule: Q04DX003 (ip), vehicle: saline with Tween-80.
The mark [2] stands for this setting: endpoint: mean survival time, dose: 200.0 mg/kg/injection, schedule: Q04DX003 (ip), vehicle: saline with Tween-80.
Setting [3] is: endpoint: mean survival time, dose: 400.0 mg/kg/injection, schedule: Q04DX003 (ip), vehicle: saline with Tween-80.
Where [4] appears, read: endpoint: mean survival time, dose: 100.0 mg/kg/injection, schedule: Q01DX009 (ip), vehicle: saline with Tween-80.
Setting [5] is: endpoint: mean survival time, dose: 200.0 mg/kg/injection, schedule: Q01DX009 (ip), vehicle: saline with Tween-80.
The mark [6] stands for this setting: endpoint: mean survival time, dose: 25.0 mg/kg/injection, schedule: Q04DX003 (ip), vehicle: saline.
Setting [7] is: endpoint: mean survival time, dose: 50.0 mg/kg/injection, schedule: Q04DX003 (ip), vehicle: saline.
Where [8] appears, read: endpoint: mean survival time, dose: 100.0 mg/kg/injection, schedule: Q01DX001 (ip), vehicle: saline.
Where [9] appears, read: endpoint: mean survival time, dose: 100.0 mg/kg/injection, schedule: Q01DX001 (ip), vehicle: saline with Tween-80.
Where [10] appears, read: endpoint: mean survival time, dose: 200.0 mg/kg/injection, schedule: Q01DX001 (ip), vehicle: saline with Tween-80.
The mark [11] stands for this setting: endpoint: mean survival time, dose: 400.0 mg/kg/injection, schedule: Q01DX001 (ip), vehicle: saline with Tween-80.

Inconclusive results and toxic doses are left out.

Regarding `O=C(c1ccccc1)C1(Br)CCC1`, the T/C runs as follows: under setting [1], 95 % of control; under setting [2], 97 % of control; under setting [3], 100 % of control.

On to `Cc1ccc2ncccc2c1[N+](=O)[O-]`, for which the T/C is, setting by setting: under setting [1], 101 % of control; under setting [2], 95 % of control.

For the compound `CCCCNC(=S)Nc1ccccc1`, the T/C reads like this: (endpoint: mean survival time, dose: 50.0 mg/kg/injection, schedule: Q01DX009 (ip), vehicle: saline with Tween-80) 100 % of control; under setting [4], 105 % of control; under setting [5], 86 % of control.

With `Cc1ccccc1N1C(=O)CSC1=S`, the T/C runs as follows: under setting [4], 98 % of control; under setting [5], 106 % of control.

On to `Cc1ccc(NCCNCC(C)(C)O)c2c(=O)c3ccccc3sc12`, for which the T/C (endpoint: mean survival time, dose: 12.5 mg/kg/injection, schedule: Q04DX003 (ip), vehicle: saline) is 100 % of control; the T/C under setting [6] is 103 % of control; the T/C (endpoint: mean survival time, dose: 50.0 mg/kg/injection, schedule: Q01DX001 (ip), vehicle: saline) was 93 % of control; the T/C under setting [7] is 92 % of control.

As to `COC1OC(CCl)C(Cl)C2OS(=O)(=O)OC12` (centres undefined), the T/C under setting [8] is 97 % of control; the T/C (endpoint: mean survival time, dose: 200.0 mg/kg/injection, schedule: Q01DX001 (ip), vehicle: saline) was 100 % of control; the T/C (endpoint: mean survival time, dose: 400.0 mg/kg/injection, schedule: Q01DX001 (ip), vehicle: saline) is 96 % of control.

As for `OCC12OCC(O1)C(O)C(O)C2O` (centres undefined), the T/C runs as follows: (endpoint: mean survival time, dose: 100.0 mg/kg/injection, schedule: Q01DX009 (ip), vehicle: saline) 97 % of control; (endpoint: mean survival time, dose: 200.0 mg/kg/injection, schedule: Q01DX009 (ip), vehicle: saline) 103 % of control; (endpoint: mean survival time, dose: 400.0 mg/kg/injection, schedule: Q01DX009 (ip), vehicle: saline) 98 % of control.

Consider `CC([NH-])CC[NH-].O=S(=O)(O)O.[Pt+2]` (centres undefined), for which, for the setting “endpoint: mean survival time, dose: 6.25 mg/kg/injection, schedule: Q04DX003 (ip), vehicle: saline”, the T/C is 158 % of control.

Consider `O=c1cn[nH]c2c(Br)cc(Br)cc12`, for which the T/C under setting [1] is 103 % of control, the T/C under setting [2] was 97 % of control and the T/C under setting [3] is 97 % of control.

For the compound `C=CCOc1ccccc1C(C)=O`, the T/C under setting [4] is 104 % of control; the T/C under setting [5] is 107 % of control; the T/C (endpoint: mean survival time, dose: 400.0 mg/kg/injection, schedule: Q01DX009 (ip), vehicle: saline with Tween-80) is 107 % of control.

On to `O=C(COc1ccc(Cl)cc1)C1CSc2c(Cl)ccc(Cl)c21` (centres undefined), for which the T/C runs as follows: under setting [1], 92 % of control; under setting [2], 98 % of control; under setting [3], 101 % of control.

On to `FC(F)(F)c1ccc2ccc3ccc(Cl)cc3c2c1`, for which the T/C reads like this: (endpoint: mean survival time, dose: 37.5 mg/kg/injection, schedule: Q01DX009 (ip), vehicle: saline) 97 % of control; (endpoint: mean survival time, dose: 75.0 mg/kg/injection, schedule: Q01DX009 (ip), vehicle: saline) 94 % of control; (endpoint: mean survival time, dose: 75.0 mg/kg/injection, schedule: Q04DX003 (ip), vehicle: saline) 91 % of control; (endpoint: mean survival time, dose: 150.0 mg/kg/injection, schedule: Q01DX009 (ip), vehicle: saline) 91 % of control; (endpoint: mean survival time, dose: 150.0 mg/kg/injection, schedule: Q04DX003 (ip), vehicle: saline) 95 % of control; (endpoint: mean survival time, dose: 300.0 mg/kg/injection, schedule: Q04DX003 (ip), vehicle: saline) 97 % of control.

Regarding `c1ccc(-c2nc3ccccc3s2)nc1`, the T/C under setting [1] is 96 % of control, the T/C under setting [2] is 103 % of control and the T/C under setting [3] is 96 % of control.

`COC(=O)c1ccc(OC)c2nc3c(C=O)c(OC)c(C)c(OC)c3nc12`: the T/C runs as follows: under setting [9], 94 % of control; (endpoint: mean survival time, dose: 100.0 mg/kg/injection, schedule: Q04DX002 (ip), vehicle: saline with Tween-80) 98 % of control; under setting [10], 95 % of control; (endpoint: mean survival time, dose: 200.0 mg/kg/injection, schedule: Q04DX002 (ip), vehicle: saline with Tween-80) 106 % of control; under setting [11], 103 % of control; (endpoint: mean survival time, dose: 400.0 mg/kg/injection, schedule: Q04DX002 (ip), vehicle: saline with Tween-80) 106 % of control.

Regarding `CC1=C(C(N)=O)C(c2ccccc2)NC(=S)N1` (centres undefined), the T/C by setting is: (endpoint: median survival time, dose: 25.0 mg/kg/injection, schedule: Q01DX009 (ip), vehicle: Klucel (hydroxypropylcellulose) (HPC)) 101 % of control; (endpoint: median survival time, dose: 50.0 mg/kg/injection, schedule: Q01DX009 (ip), vehicle: Klucel (hydroxypropylcellulose) (HPC)) 105 % of control; (endpoint: median survival time, dose: 100.0 mg/kg/injection, schedule: Q01DX009 (ip), vehicle: Klucel (hydroxypropylcellulose) (HPC)) 102 % of control; (endpoint: median survival time, dose: 200.0 mg/kg/injection, schedule: Q01DX009 (ip), vehicle: Klucel (hydroxypropylcellulose) (HPC)) 112 % of control; (endpoint: median survival time, dose: 400.0 mg/kg/injection, schedule: Q01DX009 (ip), vehicle: Klucel (hydroxypropylcellulose) (HPC)) 103 % of control.

On to `O=C1CC(=Nc2ccccc2)CC(=O)N1`, for which the T/C was 102 % of control (endpoint: mean survival time, dose: 12.5 mg/kg/injection, schedule: Q01DX009 (ip), vehicle: other); 105 % of control (endpoint: mean survival time, dose: 25.0 mg/kg/injection, schedule: Q01DX009 (ip), vehicle: other); 91 % of control (endpoint: mean survival time, dose: 50.0 mg/kg/injection, schedule: Q01DX009 (ip), vehicle: other); 89 % of control (endpoint: mean survival time, dose: 100.0 mg/kg/injection, schedule: Q01DX009 (ip), vehicle: other); 89 % of control (endpoint: mean survival time, dose: 200.0 mg/kg/injection, schedule: Q01DX009 (ip), vehicle: other).

For `COC(=O)C(CS)NC(=O)CCNC(=O)OCc1ccccc1` (centres undefined), the T/C was 100 % of control (endpoint: mean survival time, dose: 12.5 mg/kg/injection, schedule: Q01DX009 (ip), vehicle: sodium bicarbonate); 96 % of control (endpoint: mean survival time, dose: 25.0 mg/kg/injection, schedule: Q01DX009 (ip), vehicle: sodium bicarbonate); 91 % of control (endpoint: mean survival time, dose: 50.0 mg/kg/injection, schedule: Q01DX009 (ip), vehicle: sodium bicarbonate); 93 % of control (endpoint: mean survival time, dose: 100.0 mg/kg/injection, schedule: Q01DX009 (ip), vehicle: sodium bicarbonate); 88 % of control (endpoint: mean survival time, dose: 200.0 mg/kg/injection, schedule: Q01DX009 (ip), vehicle: sodium bicarbonate).

With `CC(C)c1ccccc1NC1=NCCO1`, the T/C runs as follows: (endpoint: mean survival time, dose: 100.0 mg/kg/injection, schedule: Q04DX003 (ip), vehicle: Klucel (hydroxypropylcellulose) (HPC)) 103 % of control; (endpoint: mean survival time, dose: 200.0 mg/kg/injection, schedule: Q04DX003 (ip), vehicle: Klucel (hydroxypropylcellulose) (HPC)) 90 % of control.

Take `O=S1(=O)CCC2CCCCC2C1` (centres undefined): the T/C (endpoint: mean survival time, dose: 12.5 mg/kg/injection, schedule: Q04DX003 (ip), vehicle: saline with Tween-80) is 103 % of control and the T/C (endpoint: mean survival time, dose: 25.0 mg/kg/injection, schedule: Q04DX003 (ip), vehicle: saline with Tween-80) was 100 % of control.

Turning to `CC1(C)C(N2CCCCC2)CS1(=O)=O` (centres undefined), the T/C was 98 % of control under setting [6], 95 % of control under setting [7] and 101 % of control under setting [8].

`COC1=C(c2ccccc2)/C(=C/c2ccccc2)OC1=O`: the T/C under setting [9] was 104 % of control, the T/C under setting [10] was 96 % of control and the T/C under setting [11] was 93 % of control.

Turning to `Cc1ccc(C(=O)O)cc1`, the T/C reads like this: under setting [1], 101 % of control; under setting [2], 93 % of control; under setting [3], 97 % of control.

On to `O=C1[C@@H]2C3C=CC([C@H]4C(=O)N(CO)C(=O)[C@@H]34)[C@@H]2C(=O)N1CO`, for which the T/C by setting is: (endpoint: median survival time, dose: 25.0 mg/kg/injection, schedule: Q01DX005 (ip), vehicle: Klucel (hydroxypropylcellulose) (HPC)) 107 % of control; (endpoint: median survival time, dose: 50.0 mg/kg/injection, schedule: Q01DX005 (ip), vehicle: Klucel (hydroxypropylcellulose) (HPC)) 109 % of control; (endpoint: median survival time, dose: 200.0 mg/kg/injection, schedule: Q01DX005 (ip), vehicle: Klucel (hydroxypropylcellulose) (HPC)) 101 % of control.

As for `CCC(C)OC(=O)Nc1cccc(OC(=O)N(C)C)c1` (centres undefined), the T/C under setting [1] is 97 % of control, the T/C under setting [2] is 97 % of control and the T/C under setting [3] was 100 % of control.

In the case of `CC1OC(n2ccc(=O)[nH]c2=O)C2OC(C)(C)OC2C1=O` (centres undefined), the T/C was 109 % of control (endpoint: median survival time, dose: 12.5 mg/kg/injection, schedule: Q01DX005 (ip), vehicle: saline with Tween-80); 97 % of control (endpoint: median survival time, dose: 25.0 mg/kg/injection, schedule: Q01DX005 (ip), vehicle: saline with Tween-80); 97 % of control (endpoint: median survival time, dose: 50.0 mg/kg/injection, schedule: Q01DX005 (ip), vehicle: saline with Tween-80); 101 % of control (endpoint: median survival time, dose: 100.0 mg/kg/injection, schedule: Q01DX005 (ip), vehicle: saline with Tween-80); 101 % of control (endpoint: median survival time, dose: 200.0 mg/kg/injection, schedule: Q01DX005 (ip), vehicle: saline with Tween-80).
